The source of these data is PubChem BioAssay (NCI).

SMILES strings stand for the structures.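 Cells were grown in 96-well plates and exposed to each compound for 48 hours at five concentrations; endpoints were interpolated linearly between bracketing concentrations, or set to the highest concentration if not reached. At the TGI there is no net growth.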

Test in all cases: NCI anticancer screen, dose series, 48 h
Assay [1] has as its system HOP-62 NSCLC.
For assay [2], the system named is MDA-N.
Assay [3] has as its system BT-549 breast.
In assay [4] the test system is HOP-92 NSCLC.
The subject of assay [5] is U251 CNS.
In assay [6] the test system is UACC-62 melanoma.
Assay [7] has as its system SW-620 colon.
For assay [8], the system named is MCF7 breast.
Assay [9] relates to RPMI-8226 leukemia.
The subject of assay [10] is NCI-H460 lung.
Assay [11] relates to RXF 393 renal.

As for `Cc1ccc(N2C(=O)C(=O)N(/N=C3\C(=O)Nc4ccccc43)C2=S)cc1`, the TGI in assay [1], in assay [2], in [3], in [4], in [5] and in assay [6] was above 100 µM throughout. The TGI in assay [7], in assay [8], in assay [9], in assay [10] and in [11] was above 100 µM each time.
On to `O=C1c2c(ccc3c2CCCC3)CC1Cc1ccc2c(c1)CCCC2` (configuration not stated), for which the TGI in assay [1] is above 100 µM; in [2] it was above 100 µM; in assay [3], above 100 µM; in assay [4], 83.6 µM; in assay [5], above 100 µM; in [6], above 100 µM. Besides, the TGI in [7] is above 100 µM; in [8], above 100 µM; in assay [9], above 100 µM; in assay [10], above 100 µM; in assay [11] it was 78.5 µM.
In the case of `CCCc1cc(-c2ccc(-c3cc(CCC)c(C=O)[nH]3)s2)[nH]c1C=O`, the TGI in assay [1], in [2], in [3], in assay [4], in assay [5] and in [6] was above 100 µM throughout. The TGI was above 100 µM in assay [7]; above 100 µM in assay [8]; above 100 µM in assay [9]; above 100 µM in [10]; above 87.9 µM in [11].
Consider `CNc1ncnc2c1cnn2Cc1cn(CCCCO)nn1`, for which the TGI in assay [1], in [2], in [3], in [4], in assay [5] and in assay [6] was above 100 µM each time. The TGI in [7], in assay [8], in assay [9], in assay [10] and in assay [11] was above 100 µM in each case.
As for `Cc1ccc(Nc2cn(COCc3ccccc3)c(=O)[nH]c2=O)cc1`, the TGI in [1] is above 100 µM; in assay [2] it was above 100 µM; in [3] it was 82 µM; in assay [4] it was above 100 µM; in assay [5] it was above 100 µM; in assay [6], above 100 µM. Moreover, the TGI in assay [7], in assay [8], in [9], in [10] and in assay [11] was above 100 µM throughout.
`COC(=O)CCC1(O)C=CC(=O)C=C1`: the TGI in assay [1] is above 100 µM; in assay [2] it was above 100 µM; in [3], above 100 µM; in assay [4], above 100 µM; in assay [5], 63.2 µM; in assay [6], 58 µM. Besides, the TGI was above 100 µM in [7]; above 100 µM in [8]; above 100 µM in [9]; above 100 µM in assay [10]; 61.5 µM in assay [11].
With `CC1=C(C(=O)NC(C)(C)C)CC(C(=O)NC(C)(C)C)C(C)N1` (configuration not stated), the TGI in [1], in [2], in assay [3], in assay [4], in assay [5] and in [6] was above 100 µM in each case. Further, the TGI in assay [7], in assay [8], in assay [9], in [10] and in assay [11] was above 100 µM throughout.
